Marks after values point to notes of the source that are not given here.
What was measured:
[1] = test system: ICAM-1; assay: ICAM-1 protein (immunoblot) and mRNA (RT-qPCR) in PMM-deficient fibroblasts; type: cell-based, human; conditions: 10 μM epalrestat
Description: (§1) Effect of epalrestat on glycosylation biomarkers in vitro: Immunoblotting and RT-qPCR were used to measure Intercellular Adhesion Molecule 1 (ICAM-1) and Lysosomal Associated Membrane Protein 2 (LAMP-2) protein and mRNA expression levels, respectively, as cellular markers of N-glycosylation (Ferrer et al., Mol Genet Metab 131:424-429, 2020; He et al., J Biol Chem 287:18210-18217, 2012; Eskelinen, Mol Aspects Med 27:495-502, 2006; and Radenkovic et al., Mol Genet Metab 132:27-37, 2021) in 10 PMM-deficient fibroblast lines (P1-P6, P8, P17, P19, and P24) and in control fibroblasts, treated with 10 μM epalrestat (the optimal dose based on PMM enzyme activity as described above).

[2] = test system: LAMP-2; assay: LAMP-2 protein (immunoblot) and mRNA (RT-qPCR) in PMM-deficient fibroblasts; type: cell-based, human; conditions: 10 μM epalrestat
Description: as §1

[3] = test system: fibroblasts from PMM2-CDG patients; assay: Sorbitol and mannitol levels (GC-MS) in fibroblasts treated with epalrestat for 5 days; type: cell-based, human; conditions: fibroblasts from 5 PMM2-CDG patients vs 5 healthy controls, 10 μM epalrestat 5 days
Procedure: Metabolomics measurements: Fibroblasts derived from patients carrying selected heterozygous mutations in PMM2 (R141H/F119L, R141H/E139K, R141H/N216I, and R141H/F183S) and healthy controls were cultured according to a protocol described elsewhere (Radenkovic et al., Am J Hum Genet. 2019, 104(5):835-846). Cells were grown in specialized medium and treated with 10 μM epalrestat (Iyer et al., supra) for 5 days with two changes of medium. Non-treated fibroblasts from both groups were used as negative controls. Global metabolomic changes were probed by LC/MS.
Polyols also were analyzed by GC due to the inability of LC/MS to distinguish between the same sized metabolites ([…], GLC1P, GLC6P, sorbitol/mannitol/galactitol, etc.) (Radenkovic et al., supra).

[4] = test system: PMM enzyme; assay: PMM enzyme activity in PMM2-CDG patient fibroblasts treated with epalrestat (spectrophotometric); type: cell-based, human; conditions: for Fold change 5 μM epalrestat (PMM enzyme activity) / Fold change 10 μM epalrestat (PMM enzyme activity) / Fold change 20 μM epalrestat (PMM enzyme activity): 24 hours, baseline = 1; for Highest fold change (PMM enzyme activity): at best dose; for Best dose: of 5, 10, 20 μM
Procedure: Effect of epalrestat on […] enzyme in vitro: Patient-derived and control fibroblasts (GM5381, GM5400; GM5757, GM00038, GM8680, GM01863, GM8400; Coriell Institute, Camden, NJ) were cultured in Minimum Essential Media (MEM; Gibco, Carlsbad, CA; 1 g/L glucose) supplemented with 10% Fetal Bovine Serum (FBS; Gibco), […] (P/S) and maintained in an incubator at 37° C., 5% CO2 in the presence and absence of epalrestat for 24 hours (Iyer et al., Disease Models & Mechanisms 12:11, 2019). Cells were cultured and harvested by trypsinization with 0.05% Trypsin-EDTA (Gibco). PMM and phosphomannose isomerase (MPI) activity were assayed by spectrophotometric measurements (Van Schaftingen and Jaeken, FEBS Lett 377:318-320, 1995). The effects of epalrestat (5 μM, 10 μM, or 20 μM) on PMM-deficient fibroblasts of 11 patients (P1-P6, P8, P10, P17, P19, P24) were evaluated.

[5] = test system: urine sorbitol and mannitol; assay: Urine polyols (GC/MS) in patients with other CDG, post-treatment with epalrestat; type: in vivo, human
Procedure: Urine specimens were collected from patients known to have a CDG. The samples were spiked with a mixture of labeled internal standards, allowed to equilibrate, and evaporated. The dry residue was derivatized to form trimethylsilyl esters then extracted with hexane. Specimens were analyzed by GC/MS, with selected ion monitoring using ammonia chemical ionization and a stable isotope dilution method (Jansen et al. Clin Chim Acta 1986, 157:277-294; and Kaur et al., Eur J Med Genet 2019, 62(8):103708). Sorbitol levels were considered elevated when they were above 10 mmol/mol creatinine, and mannitol levels were considered elevated when they were above 15 mmol/mol creatinine.

Structure (SMILES): CC(/C=C1\SC(=S)N(CC(=O)O)C1=O)=C\c1ccccc1 [epalrestat]
- ICAM-1 mRNA expression [1]: no effect
- LAMP-2 mRNA expression [2]: no effect
- sorbitol concentration, mean ratio after treatment ([3]; 1.4 prior to treatment, p=0.00013): 1.25
- mannitol concentration, mean ratio after treatment ([3]; 1.5 prior to treatment, p=0.064): 1.2
- patient fibroblasts that responded ([4]; 10 μM epalrestat, 8/10): 80%
- increase in PMM enzyme activity ([4]; fibroblasts of P1, 5 μM epalrestat): 43%
- increase in PMM enzyme activity ([4]; fibroblasts of P2, 10 μM epalrestat): 33%
- increase in PMM enzyme activity ([4]; fibroblasts of P3, 10 μM epalrestat): 35%
- increase in PMM enzyme activity ([4]; fibroblasts of P4, 20 μM epalrestat): 50%
- increase in PMM enzyme activity ([4]; fibroblasts of P5, 5 μM epalrestat): 35%
- increase in PMM enzyme activity ([4]; fibroblasts of P8, 10 μM epalrestat): 16%
- increase in PMM enzyme activity ([4]; fibroblasts of P10, 5 μM epalrestat): 22%
- increase in PMM enzyme activity ([4]; fibroblasts of P17, 20 μM epalrestat): 10%
- increase in PMM enzyme activity ([4]; fibroblasts of P19, 20 μM epalrestat): 20%
- increase in PMM enzyme activity ([4]; fibroblasts of P24, 10 μM epalrestat): 36%
- Fold change 5 μM epalrestat (PMM enzyme activity) ([4]; fibroblasts of subject P1, 5 μM): 1.43
- Fold change 10 μM epalrestat (PMM enzyme activity) ([4]; fibroblasts of subject P1): 1.2
- Fold change 20 μM epalrestat (PMM enzyme activity) ([4]; fibroblasts of subject P1): 1.2
- Highest fold change (PMM enzyme activity) ([4]; fibroblasts of subject P1): 1.43*
- Best dose ([4]; fibroblasts of subject P1): 5 µM
- Fold change 5 μM epalrestat (PMM enzyme activity) ([4]; fibroblasts of subject P2, 5 μM): 1.01
- Fold change 10 μM epalrestat (PMM enzyme activity) ([4]; fibroblasts of subject P2): 1.33
- Fold change 20 μM epalrestat (PMM enzyme activity) ([4]; fibroblasts of subject P2): 0.7
- Highest fold change (PMM enzyme activity) ([4]; fibroblasts of subject P2): 1.33
- Best dose ([4]; fibroblasts of subject P2): 10 µM
- Fold change 5 μM epalrestat (PMM enzyme activity) ([4]; fibroblasts of subject P3, 5 μM): 0.86
- Fold change 10 μM epalrestat (PMM enzyme activity) ([4]; fibroblasts of subject P3): 1.35
- Fold change 20 μM epalrestat (PMM enzyme activity) ([4]; fibroblasts of subject P3): 0.9
- Highest fold change (PMM enzyme activity) ([4]; fibroblasts of subject P3): 1.35
- Best dose ([4]; fibroblasts of subject P3): 10 µM
- Fold change 5 μM epalrestat (PMM enzyme activity) ([4]; fibroblasts of subject P4, 5 μM): 1.26
- Fold change 10 μM epalrestat (PMM enzyme activity) ([4]; fibroblasts of subject P4): 1.36
- Fold change 20 μM epalrestat (PMM enzyme activity) ([4]; fibroblasts of subject P4): 1.5
- Highest fold change (PMM enzyme activity) ([4]; fibroblasts of subject P4): 1.36
- Best dose ([4]; fibroblasts of subject P4): 10 µM
- Fold change 5 μM epalrestat (PMM enzyme activity) ([4]; fibroblasts of subject P5, 5 μM): 1.35
- Fold change 10 μM epalrestat (PMM enzyme activity) ([4]; fibroblasts of subject P5): 0.93
- Fold change 20 μM epalrestat (PMM enzyme activity) ([4]; fibroblasts of subject P5): 0.9
- Highest fold change (PMM enzyme activity) ([4]; fibroblasts of subject P5): 1.35
- Best dose ([4]; fibroblasts of subject P5): 5 µM
- Fold change 5 μM epalrestat (PMM enzyme activity) ([4]; fibroblasts of subject P6, 5 μM): 0.98
- Fold change 10 μM epalrestat (PMM enzyme activity) ([4]; fibroblasts of subject P6): 0.97
- Fold change 20 μM epalrestat (PMM enzyme activity) ([4]; fibroblasts of subject P6): 0.6
- Fold change 5 μM epalrestat (PMM enzyme activity) ([4]; fibroblasts of subject P8, 5 μM): 1.07
- Fold change 10 μM epalrestat (PMM enzyme activity) ([4]; fibroblasts of subject P8): 1.16
- Fold change 20 μM epalrestat (PMM enzyme activity) ([4]; fibroblasts of subject P8): 1.1
- Highest fold change (PMM enzyme activity) ([4]; fibroblasts of subject P8): 1.16
- Best dose ([4]; fibroblasts of subject P8): 10 µM
- Fold change 5 μM epalrestat (PMM enzyme activity) ([4]; fibroblasts of subject P10, 5 μM): 1.22
- Fold change 10 μM epalrestat (PMM enzyme activity) ([4]; fibroblasts of subject P10): 1.16
- Fold change 20 μM epalrestat (PMM enzyme activity) ([4]; fibroblasts of subject P10): 1.2
- Highest fold change (PMM enzyme activity) ([4]; fibroblasts of subject P10): 1.22
- Best dose ([4]; fibroblasts of subject P10): 5 µM
- Fold change 5 μM epalrestat (PMM enzyme activity) ([4]; fibroblasts of subject P17, 5 μM): 0.9
- Fold change 10 μM epalrestat (PMM enzyme activity) ([4]; fibroblasts of subject P17): 0.75
- Fold change 20 μM epalrestat (PMM enzyme activity) ([4]; fibroblasts of subject P17): 1.1
- Highest fold change (PMM enzyme activity) ([4]; fibroblasts of subject P17): 1.1
- Best dose ([4]; fibroblasts of subject P17): 20 µM
- Fold change 5 μM epalrestat (PMM enzyme activity) ([4]; fibroblasts of subject P19, 5 μM): 0.84
- Fold change 10 μM epalrestat (PMM enzyme activity) ([4]; fibroblasts of subject P19): 1.1
- Fold change 20 μM epalrestat (PMM enzyme activity) ([4]; fibroblasts of subject P19): 1.2
- Highest fold change (PMM enzyme activity) ([4]; fibroblasts of subject P19): 1.2
- Best dose ([4]; fibroblasts of subject P19): 20 µM
- Fold change 5 μM epalrestat (PMM enzyme activity) ([4]; fibroblasts of subject P24, 5 μM): 0.78
- Fold change 10 μM epalrestat (PMM enzyme activity) ([4]; fibroblasts of subject P24): 1.36
- Fold change 20 μM epalrestat (PMM enzyme activity) ([4]; fibroblasts of subject P24): 0.9
- Highest fold change (PMM enzyme activity) ([4]; fibroblasts of subject P24): 1.36
- Best dose ([4]; fibroblasts of subject P24): 10 µM
- increase in PMM enzyme activity ([4]; nine out of ten patients, 5 μM, 10 μM or 20 μM epalrestat): ≥ 10%
- maximal increase in PMM activity ([4]; patient fibroblasts, with at least one of 5, 10, 20 μM): ≤ 50%
- Mannitol (urine) ([5]; MAN1B1-CDG patient, second sample, after off-label epalrestat, first sample 14.92): 2) 10.13 mmol/mol creatinine
- Sorbitol (urine) ([5]; MAN1B1-CDG patient, second sample, post-treatment with epalrestat, first sample 10.44): 2) 7.222^‡ mmol/mol creatinine
- Sorbitol (urine) ([5]; SLC39A8-CDG patient, marked post-treatment with epalrestat): 18.0^‡ mmol/mol creatinine
